Measured values taken from patent US7332492B2, “Amino substituted dibenzothiophene derivatives for the treatment of disorders mediated by NP Y5 receptor” (AstraZeneca AB, priority 2000, dated 2008).

Target: T1, human neuropeptide Y5 receptor (Homo sapiens, UniProt Q15761)
T1 construct: starting at base 56 through to base 1393, to express the protein 10 amino acid residues shorter at the amino terminal end; made in house; host or cells: High 5 insect cells (baculovirus, pFASTBAC1 / Bac-to-Bac); membrane preparation
T1 sequence (Q15761 1-445): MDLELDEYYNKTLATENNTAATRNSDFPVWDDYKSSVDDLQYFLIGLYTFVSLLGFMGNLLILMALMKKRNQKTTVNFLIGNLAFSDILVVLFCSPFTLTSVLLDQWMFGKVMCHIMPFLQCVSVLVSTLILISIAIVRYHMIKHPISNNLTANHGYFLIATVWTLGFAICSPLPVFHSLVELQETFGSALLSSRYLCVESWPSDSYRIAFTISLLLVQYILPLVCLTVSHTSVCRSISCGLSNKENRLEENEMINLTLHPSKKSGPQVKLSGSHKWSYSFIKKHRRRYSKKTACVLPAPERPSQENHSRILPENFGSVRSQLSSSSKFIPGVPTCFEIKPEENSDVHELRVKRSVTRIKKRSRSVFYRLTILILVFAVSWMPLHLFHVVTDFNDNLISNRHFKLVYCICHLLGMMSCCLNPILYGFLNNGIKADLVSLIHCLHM
Assay: neuropeptide Y5 receptor binding assay (125I PYY displacement)
Conditions: 125I PYY binding, membranes of High 5 insect cells expressing human NPY5 receptor
Method: The activity of compounds of the invention was measured in a neuropeptide Y5 receptor binding assay as follows. Compounds were also tested in binding assays for the neuropeptide Y1 and neuropeptide Y2 receptors. Activity against these 2 receptors is contraindicated for a neuropeptide Y5 antagonist.
a) Expression of Human Neuropeptide Y5 Receptor in High 5™ Insect Cells.
High 5™ insect cells were obtained from Invitrogen (catalogue No B855-02) and stored in liquid nitrogen. Cells were revived from liquid nitrogen storage and grown at 28° C. in 100 ml ExCell 405 (JRH Biosciences) serum free medium in a 250 ml conical flask (Corning) agitated at 140 rpm in an Innova 4330 orbital shaker (New Brunswick Scientific). Cultures were routinely sub-cultured every 3-4 days.
High 5™ insect cells were transfected with the human NPY5 receptor as follows. PCR primers were designed against the huNPY5 receptor sequence, Genbank Accession Number U56079 [Gerald et. al. (1996) Nature 382, 168-171], but starting at base 56 through to base 1393, to express the protein 10 amino acid residues shorter at the amino terminal end [see Borowsky et. al. (1998) Regulatory Peptides 75-76, 45-53]. These primers were used to amplify the huNPY5 receptor from human placenta genomic DNA by PCR. […]

IC50: 94 nM
Structure (SMILES): CC(CN1CCOCC1)C(=O)Nc1ccc2sc3ccccc3c2c1 (stereo not shown) [Example 16]
